Results from patent publication US12644104B2, “Detection of environmental influences by bioluminescence” (priority 2020, dated 2026).

Key:
[1] = system: S. cerevisiae strain BY4742; test: Luminescence comparison of bacterial luciferase construct with Firefly luciferase in BY4742 (Example 2); format: cell-based, Saccharomyces cerevisiae
Protocol: (§1) D-Luciferin sodium salt (Carl Roth, Germany) was dissolved in 0.1 M Na2 HPO4-citrate buffer pH 5 to a final luciferin concentration of 1 mM. 100 μl of an overnight yeast culture was adjusted depending on the experimental question to a suitable starting OD600 of around 1.0 or less in CSM medium. 100 μl of yeast cells, 25 μl of a test solution (e.g., amino acid), and 25 μl of 1 mM luciferin solution were added in this order to a well of a black 96-well microtiter plate with a transparent bottom (Microplate, 96 well, PS, F-Bottom (Chimney Well) μClear®, Black, Med. Binding; Greiner bio-one, Germany) for a measurement. Measurements were performed using a Tristar2S Platereader (Berthold, Germany) at a constant temperature of 28° C.
The luciferase from Photinus pyralis was chosen for comparison because it is most commonly used in bioanalysis (see FIG. 6).
After both plasmids have the same genetic requirements, such as FBA1 promoter and terminator, the same vector backbone and were also transformed into BY4742, both plasmids could be directly compared. The experiment was performed twice with three technical replicates each time. The cultures were grown overnight at 28° C. and were each diluted with 50 μl of fresh medium (YPD medium). For the produced prototype (nucleic acid according to the invention, SEQ ID NO: 7), water was added instead of 50 μl of the luciferin solution (2 mM final concentration).
The luminescence of the Firefly luciferase is about 100,000 RLU. In contrast, the […]. After 5.4 h, only a low luminescence of 6893 can be measured (see FIG. 2D). The CSM-URA plates were photographed in daylight (FIG. 2A) and in complete darkness (FIG. 2B) by a commercial photographic camera. The naked eye was also able to perceive the light produced by the yeasts.

[2] = system: yeast strain BY4742; test: Detection of leucine by bioluminescence of leucine-auxotrophic BY4742 carrying pRS426-Lux (Example 4); format: cell-based, Saccharomyces cerevisiae; conditions: CSM-Leu-URA medium, leucine added after 5 h incubation, FIG. 4
Protocol: as §1
The yeast strain BY4742 used by the inventors has several auxotrophies, including leucine auxotrophy, which makes this strain useful for leucine detection. For this purpose, the strain was grown overnight in CSM-URA medium. […] After 5 h of incubation, a defined amount of leucine was added and luminescence was subsequently measured (FIG. 4). […] The relationship between available leucine and measured bioluminescence behaves in a concentration-dependent manner within a certain concentration range, so that the leucine concentration can be correlated and measured with the bioluminescence.

Compound	initial luminescence ([1]; BY4742, FBA1 promoter/terminator, YPD, luciferin 2 mM added only for Firefly, FIG. 2D)	luminescence after 5.4 h ([1]; BY4742, FIG. 2D, luciferin added only for Firefly) [RLU]	luminescence after 1.7 h ([1]; BY4742, luciferin 2 mM final, FIG. 2D)	leucine concentration from which organisms grow and light signal increases regardless of concentration [2] [mg/L]	leucine concentration with limiting effect on cell metabolism and maximum possible bioluminescence [2]
Firefly luciferase: plasmid encoding Photinus pyralis luciferase under the FBA1 promoter and terminator, same pRS426 backbone	52,475 RLU	6893	19,143 RLU		
CC(C)C[C@H](N)C(=O)O [leucine]				> 49	less than 20 mg/L
